Experimental data: patent US7262202B2, “Inhibitors of cyclin dependent kinases as anti-cancer agent” (Cyclacel Limited, priority 2001, dated 2007)
Where two headings read alike, the source gives them in different places.

Key:
[1] = target: T1, CDK2/cyclin E (Homo sapiens, UniProt P24941); experiment: CDK2/Cyclin E kinase assay (GST-Rb phosphorylation, radiolabelled ATP); assay type: biochemical;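 also: enzyme was His-tagged CDK2/cyclin E co-expressed in baculovirus-infected Sf9 insect cells and purified over a metal-chelate column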
T1 construct: His; made in house; host or cells: Sf9 insect cells (baculovirus)

[2] = system: human tumour cell lines; experiment: cell-based anti-proliferative assays
Excerpt: These assays, including methods for their performance, are described in more detail in Example 3. Using such cell line and enzymes assays it may be determined whether a compound is anti-proliferative in the context of the present invention.
Selected compounds from the above examples were subjected to a standard cellular proliferation assay using a range of different human tumour cell lines. Standard 72-h MTT (thiazolyl blue; 3-[4,5-dimethylthiazol-2-yl]-2,5-diphenyltetrazolium bromide) assays were performed (Haselsberger, K.; Peterson, D. C.; Thomas, D. G.; Darling, J. L. Anti Cancer Drugs 1996, 7, 331–8; Loveland, B. E.; Johns, T. G.; Mackay, I. R.; Vaillant, F.; Wang, Z. X.; Hertzog, P. J. Biochemistry International 1992, 27, 501–10). Human tumour cell lines were obtained from the ATCC (American Type Culture Collection, 10801 University Boulevard, Manessas, Va. 20110-2209, USA).

[3] = system: Saos-2; experiment: 72-h MTT cellular proliferation assay, Saos-2; assay type: cell-based; conditions: human tumour cell line Saos-2, 72-h MTT; read-out: Cytotoxicity (IC50, μM) Saos-2
Excerpt: (§1) Selected compounds from the above examples were subjected to a standard cellular proliferation assay using a range of different human tumour cell lines.

[4] = system: A549; experiment: 72-h MTT cellular proliferation assay, A549; assay type: cell-based; conditions: human tumour cell line A549, 72-h MTT; read-out: Cytotoxicity (IC50, μM) A549
Excerpt: as §1

[5] = bound stated, (±0.05), read-out: IC50 for cdk2/cyclinE

With Cc1c[nH]c(C)c1-c1ccnc(Nc2cccc(O)c2)n1 [Compound 8, 3-[4-(2,4-Dimethyl-1H-pyrrol-3-yl)-pyrimidin-2-ylamino]-phenol] the melting point was 169 to 174.6 °C, the IC50 [1, 5] was < 5 µM and the IC50 ([1]; read-out: CDK2/cyclin E (IC50)) was 1.4 µM.

With Cc1[nH]c([N+](=O)[O-])c(C)c1-c1ccnc(Nc2ccc(F)cc2)n1 [Compound 47, [4-(2,4-Dimethyl-5-nitro-1H-pyrrol-3-yl)-pyrimidin-2-yl]-(4-fluoro-phenyl)-amine] the “anti-proliferative activity in cell-based assays” value (shortened to “anti-proliferative activity”) [2] was “particularly effective anti-proliferative agents”.

For Cc1cc(Nc2nccc(-c3c(C)[nH]c(C#N)c3C)n2)ccc1F [Compound 41, 4-[2-(4-Fluoro-3-methyl-phenylamino)-pyrimidin-4-yl]-3,5-dimethyl-1H-pyrrole-2-carbonitrile], the “anti-proliferative activity” value [2] was “particularly effective anti-proliferative agents”.

With Cc1c[nH]c(C)c1-c1ccnc(Nc2ccc(I)cc2)n1 [Compound 3, [4-(2,4-Dimethyl-1H-pyrrol-3-yl)-pyrimidin-2-yl]-(4-iodo-phenyl)-amine] the IC50 [1, 5] was < 0.5 µM and the IC50 ([1]; read-out: CDK2/cyclin E (IC50)) was 0.5 µM.

Work on Cc1c[nH]c(C)c1-c1ccnc(Nc2cccc(C(F)(F)F)c2)n1 [Compound 13, [4-(2,4-Dimethyl-1H-pyrrol-3-yl)-pyrimidin-2-yl]-(3-trifluoromethyl-phenyl)-amine] yielded a melting point of 152.7 to 154.3 °C.

With Cc1c[nH]c(C)c1-c1ccnc(Nc2ccc(Cl)cc2)n1 [Compound 5, (4-Chloro-phenyl)-[4-(2,4-dimethyl-1H-pyrrol-3-yl)-pyrimidin-2-yl]-amine] the melting point was 219 to 223 °C, the IC50 [1, 5] was < 5 µM and the IC50 ([1]; read-out: CDK2/cyclin E (IC50)) was 1.7 µM.

For Cc1[nH]c(C#N)c(C)c1-c1ccnc(Nc2cccc(O)c2)n1 [Compound 36, 4-[2-(3-Hydroxy-phenylamino)-pyrimidin-4-yl]-3,5-dimethyl-1H-pyrrole-2-carbonitrile], the IC50 [1, 5] was < 0.5 µM, the IC50 [3] was 0.9 µM and the “anti-proliferative activity” value [2] was “particularly effective anti-proliferative agents”.

With Cc1c[nH]c(C)c1-c1ccnc(Nc2ccc(O)cc2)n1 [Compound 7, 4-[4-(2,4-Dimethyl-1H-pyrrol-3-yl)-pyrimidin-2-ylamino]-phenol] the melting point was 189.5 to 193.4 °C, the IC50 [1, 5] was < 5 µM and the IC50 ([1]; read-out: CDK2/cyclin E (IC50)) was 2.9 µM.

In the case of Cc1ccc(Nc2nccc(-c3c(C)[nH]c(C#N)c3C)n2)cc1[N+](=O)[O-] [Compound 37, 3,5-Dimethyl-4-[2-(4-methyl-3-nitro-phenylamino)-pyrimidin-4-yl]-1H-pyrrole-2-carbonitrile], the “anti-proliferative activity” value [2] is reported as “particularly effective anti-proliferative agents”.

For Cc1c[nH]c(C)c1-c1ccnc(Nc2cc(F)cc(F)c2)n1 [Compound 6, (3,5-Difluoro-phenyl)-[4-(2,4-dimethyl-1H-pyrrol-3-yl)-pyrimidin-2-yl]-amine], the melting point was 153.3 to 156.8 °C, the IC50 [1, 5] was < 5 µM and the IC50 ([1]; read-out: CDK2/cyclin E (IC50)) was 1.3 µM.

For Cc1[nH]c(CN2CCOCC2)c(C)c1-c1ccnc(Nc2ccc(F)cc2)n1 [Compound 55, [4-(2,4-Dimethyl-5-morpholin-4-ylmethyl-1H-pyrrol-3-yl)-pyrimidin-2-yl]-(4-fluoro-phenyl)-amine], the melting point was 94.7 to 97.6 °C, the IC50 [1, 5] was < 1 µM and the IC50 ([1]; read-out: CDK2/cyclin E (IC50)) was 0.87 µM.

In the case of Cc1c[nH]c(C)c1-c1ccnc(Nc2ccc(I)c(Cl)c2)n1 [Compound 16, (3-Chloro-4-iodo-phenyl)-[4-(2,4-dimethyl-1H-pyrrol-3-yl)-pyrimidin-2-yl]-amine], the IC50 [4] is reported as 4.39 µM, the melting point is reported as 185 to 187.4 °C and the IC50 [1, 5] is reported as < 5 µM. For the same molecule, the IC50 ([1]; read-out: CDK2/cyclin E (IC50)) was 1.52 µM and the “anti-proliferative activity” value [2] was “particularly effective anti-proliferative agents”.

In the case of Cc1c[nH]c(C)c1-c1ccnc(Nc2ccc(Cl)c(C(F)(F)F)c2)n1 [Compound 11, (4-Chloro-3-trifluoromethyl-phenyl)-[4-(2,4-dimethyl-1H-pyrrol-3-yl)-pyrimidin-2-yl]-amine], the melting point is reported as 187.7 to 190.7 °C.

With Cc1ccc(Nc2nccc(-c3c(C)[nH]c(C#N)c3C)n2)cc1O [Compound 40, 4-[2-(3-Hydroxy-4-methyl-phenylamino)-pyrimidin-4-yl]-3,5-dimethyl-1H-pyrrole-2-carbonitrile] the “anti-proliferative activity” value [2] was “particularly effective anti-proliferative agents”.

For Cc1c[nH]c(C)c1-c1ccnc(Nc2ccc(I)c(F)c2)n1 [Compound 17, [4-(2,4-Dimethyl-1H-pyrrol-3-yl)-pyrimidin-2-yl]-(3-fluoro-4-iodo-phenyl)-amine], the melting point was 200 to 202 °C, the IC50 [1, 5] was < 5 µM and the IC50 ([1]; read-out: CDK2/cyclin E (IC50)) was 1.73 µM.

In the case of Cc1[nH]c(C#N)c(C)c1-c1ccnc(Nc2ccc(O)cc2)n1 [Compound 33, 4-[2-(4-Hydroxy-phenylamino)-pyrimidin-4-yl]-3,5-dimethyl-1H-pyrrole-2-carbonitrile], the “anti-proliferative activity” value [2] is reported as “particularly effective anti-proliferative agents”.

Work on Cc1c[nH]c(C)c1-c1ccnc(Nc2ccc(Cl)cc2Cl)n1 [Compound 10, (2,4-Dichloro-phenyl)-[4-(2,4-dimethyl-1H-pyrrol-3-yl)-pyrimidin-2-yl]-amine] yielded a melting point of 158.5 to 159.7 °C.

For Cc1c[nH]c(C)c1-c1ccnc(Nc2ccc(F)c(F)c2)n1 [Compound 4, (3,4-Difluoro-phenyl)-[4-(2,4-dimethyl-1H-pyrrol-3-yl)-pyrimidin-2-yl]-amine], the IC50 [1, 5] was < 5 µM and the IC50 ([1]; read-out: CDK2/cyclin E (IC50)) was 1.3 ± 0.4 µM.

With Cc1[nH]c(C#N)c(C)c1-c1ccnc(Nc2cccc([N+](=O)[O-])c2)n1 [Compound 31, 3,5-Dimethyl-4-[2-(3-nitro-phenylamino)-pyrimidin-4-yl]-1H-pyrrole-2-carbonitrile] the “anti-proliferative activity” value [2] was “particularly effective anti-proliferative agents”.

With Cc1[nH]c(C(N)=O)c(C)c1-c1ccnc(Nc2ccc(F)cc2)n1 [Compound 44, 4-[2-(4-Fluoro-phenylamino)-pyrimidin-4-yl]-3,5-dimethyl-1H-pyrrole-2-carboxylic acid amide] the “anti-proliferative activity” value [2] was “particularly effective anti-proliferative agents”.

With Cc1c[nH]c(C)c1-c1ccnc(Nc2ccc(F)cc2)n1 [Compound 1, [4-(2,4-Dimethyl-1H-pyrrol-3-yl)-pyrimidin-2-yl]-(4-fluoro-phenyl)-amine] the IC50 [1, 5] was < 1 µM and the IC50 ([1]; read-out: CDK2/cyclin E (IC50)) was 1 ± 0.7 µM.

In the case of Cc1cn(C)c(C)c1-c1ccnc(Nc2ccc(F)cc2)n1 [Compound 46, (4-Fluoro-phenyl)-[4-(1,2,4-trimethyl-1H-pyrrol-3-yl)-pyrimidin-2-yl]-amine], the IC50 [1, 5] is reported as < 5 µM, the IC50 ([1]; read-out: CDK2/cyclin E (IC50)) is reported as 1.79 µM and the “anti-proliferative activity” value [2] is reported as “particularly effective anti-proliferative agents”.

Cc1c[nH]c(C)c1-c1ccnc(Nc2ccc(F)cc2F)n1 [Compound 9, (2,4-Difluoro-phenyl)-[4-(2,4-dimethyl-1H-pyrrol-3-yl)-pyrimidin-2-yl]-amine] showed a melting point of 219 to 220 °C.

With Cc1[nH]c(Cl)c(C)c1-c1ccnc(Nc2ccc(F)cc2)n1 [Compound 52, [4-(5-Chloro-2,4-dimethyl-1H-pyrrol-3-yl)-pyrimidin-2-yl]-(4-fluoro-phenyl)-amine] the IC50 [1, 5] was < 1 µM.

In the case of Cc1[nH]c(Br)c(C)c1-c1ccnc(Nc2ccc(F)cc2)n1 [Compound 50, [4-(5-Bromo-2,4-dimethyl-1H-pyrrol-3-yl)-pyrimidin-2-yl]-(4-fluoro-phenyl)-amine], the IC50 [1, 5] is reported as < 1 µM.

With Cc1c[nH]c(C)c1-c1ccnc(Nc2cccc([N+](=O)[O-])c2)n1 [Compound 2] the “anti-proliferative activity” value [2] was “particularly effective anti-proliferative agents”.
